This passage reports Normal melting temperature results from the NIST ThermoML archive (doi:10.1016/j.fluid.2013.07.002).

For the data set the following is noted: Crystal; visual observation.

SMILES strings stand for the structures. Numbers after ± are expanded uncertainties.

Consider `CCCCCCCCCCCCCCCCCCO` [1-octadecanol], for which the Normal melting temperature was 58 ± 0.39 °C.
